# In BindingDB's records for doi:10.1021/jm0101390 (Harvard Medical School, 2001):
# pIC50: −log10 of the molar value.
# Biological target: Aldehyde dehydrogenase, mitochondrial (Mesocricetus auratus)
# Assay: Inhibition of hamster liver aldehyde dehydrogenase ALDH-2
row,pIC50,Structure (SMILES)
1,6.55,CCOC(=O)CCCCCOc1ccc2c(=O)c(-c3ccc(O)cc3)coc2c1 [6-[3-(4-Hydroxy-phenyl)-4-oxo-4H-chromen-7-yloxy]-hexanoic acid ethyl ester]
2,7.00,O=C(O)CCCCOc1ccc2c(=O)c(-c3ccc(O)cc3)coc2c1 [5-[3-(4-Hydroxy-phenyl)-4-oxo-4H-chromen-7-yloxy]-pentanoic acid]
3,6.89,O=C(O)CCCCCCCCCCCOc1ccc2c(=O)c(-c3ccc(O)cc3)coc2c1 [12-(3-(4-hydroxyphenyl)-4-oxo-4H-chromen-7-yloxy)dodecanoic acid]
4,7.30,O=C(O)CCCCCCOc1ccc2c(=O)c(-c3ccc(O)cc3)coc2c1 [7-[3-(4-Hydroxy-phenyl)-4-oxo-4H-chromen-7-yloxy]-heptanoic acid]
5,7.40,O=C(O)CCCCCCCOc1ccc2c(=O)c(-c3ccc(O)cc3)coc2c1 [8-(3-(4-hydroxyphenyl)-4-oxo-4H-chromen-7-yloxy)octanoic acid]
6,6.92,O=c1c(-c2ccc(O)cc2)coc2cc(OCCCCCCO)ccc12 [7-(6-Hydroxy-hexyloxy)-3-(4-hydroxy-phenyl)-chromen-4-one]
7,6.15,O=c1c(-c2ccc(O)cc2)coc2cc(OCCCCCCCCCO)ccc12 [7-(9-Hydroxy-nonyloxy)-3-(4-hydroxy-phenyl)-chromen-4-one]
8,7.30,O=C(O)CCCCCCCCCOc1ccc2c(=O)c(-c3ccc(O)cc3)coc2c1 [10-(3-(4-hydroxyphenyl)-4-oxo-4H-chromen-7-yloxy)decanoic acid]
9,7.00,NCCCCCCOc1ccc2c(=O)c(-c3ccc(O)cc3)coc2c1 [7-(6-Amino-hexyloxy)-3-(4-hydroxy-phenyl)-chromen-4-one]

# Continued, compound first:
row,Structure (SMILES),pIC50
1,CCCCCCC(Oc1ccc2c(=O)c(-c3ccc(O)cc3)coc2c1)C(=O)OCC (configuration not stated) [2-[3-(4-Hydroxy-phenyl)-4-oxo-4H-chromen-7-yloxy]-octanoic acid ethyl ester],5.14
2,C=CCOc1ccc2c(=O)c(-c3ccc(O)cc3)coc2c1 [7-Allyloxy-3-(4-hydroxy-phenyl)-chromen-4-one],6.74
3,CCOC(=O)COc1ccc2c(=O)c(-c3ccc(O)cc3)coc2c1 [[3-(4-Hydroxy-phenyl)-4-oxo-4H-chromen-7-yloxy]-acetic acid ethyl ester],6.89
4,NCCCCOc1ccc2c(=O)c(-c3ccc(O)cc3)coc2c1 [7-(4-Amino-butoxy)-3-(4-hydroxy-phenyl)-chromen-4-one],6.60
5,CCOC(=O)CCCCOc1ccc2c(=O)c(-c3ccc(O)cc3)coc2c1 [5-[3-(4-Hydroxy-phenyl)-4-oxo-4H-chromen-7-yloxy]-pentanoic acid ethyl ester],6.62
6,"CC1=C(c2ccccc2)C(=O)OC2CC(Cl)CCC12 (configuration not stated) [7-Chloro-4-methyl-3-phenyl-4a,5,6,7,8,8a-hexahydro-chromen-2-one]",6.82
7,CCCCC(Oc1ccc2c(=O)c(-c3ccc(O)cc3)coc2c1)C(=O)OCC (configuration not stated) [2-[3-(4-Hydroxy-phenyl)-4-oxo-4H-chromen-7-yloxy]-hexanoic acid ethyl ester],5.35
8,CCCCCCCCCCCCOc1ccc2c(=O)c(-c3ccc(O)cc3)coc2c1 [7-(dodecyloxy)-3-(4-hydroxyphenyl)-4H-chromen-4-one],< 5.05
9,CC(Oc1ccc2c(=O)c(-c3ccc(O)cc3)coc2c1)C(=O)O (configuration not stated) [2-[3-(4-Hydroxy-phenyl)-4-oxo-4H-chromen-7-yloxy]-propionic acid],5.60
10,O=c1c(-c2ccc(O)cc2)coc2cc(OCCCCCCCCCCCCO)ccc12 [7-(12-Hydroxy-dodecyloxy)-3-(4-hydroxy-phenyl)-chromen-4-one],5.77
11,C=CCCCCOc1ccc2c(=O)c(-c3ccc(O)cc3)coc2c1 [7-Hex-5-enyloxy-3-(4-hydroxy-phenyl)-chromen-4-one],6.82
12,O=c1c(-c2ccc(O)cc2)coc2cc(OCCOCCOCCO)ccc12 [7-(2-(2-(2-hydroxyethoxy)ethoxy)ethoxy)-3-(4-hydroxyphenyl)-4H-chromen-4-one],7.40
13,O=C(O)CCCCCCCCCCCCCCCOc1ccc2c(=O)c(-c3ccc(O)cc3)coc2c1 [16-[3-(4-Hydroxy-phenyl)-4-oxo-4H-chromen-7-yloxy]-hexadecanoic acid],< 5.05
14,CCCCCCOc1ccc2c(=O)c(-c3ccc(O)cc3)coc2c1 [7-Hexyloxy-3-(4-hydroxyphenyl)chromen-4-one],5.82
15,CC(C)Oc1ccc2c(=O)c(-c3ccc(O)cc3)coc2c1 [3-(4-Hydroxy-phenyl)-7-isopropoxy-chromen-4-one],7.10
16,O=C(O)COc1ccc2c(=O)c(-c3ccc(O)cc3)coc2c1 [2-(3-(4-hydroxyphenyl)-4-oxo-4H-chromen-7-yloxy)acetic acid],5.92
17,CCOc1ccc2c(=O)c(-c3ccc(O)cc3)coc2c1 [7-Ethoxy-3-(4-hydroxy-phenyl)-chromen-4-one],7.10
18,CCCCCCC(Oc1ccc2c(=O)c(-c3ccc(O)cc3)coc2c1)C(=O)O (configuration not stated) [2-[3-(4-Hydroxy-phenyl)-4-oxo-4H-chromen-7-yloxy]-octanoic acid],5.70
